Here are results for two compounds from paper PMC7809625 (Cell Reports, 2021).

Each structure is given as a SMILES string.

By Ki is commonly meant a measure of affinity in units of concentration, obtained from inhibition or displacement. High values mean a looser hold on the target, low ones a stronger hold on the target.

Experiment [1] concerns the target T1, VGLUT1 (Rattus norvegicus, UniProt Q62634).
T1 sequence (Q62634 1-560): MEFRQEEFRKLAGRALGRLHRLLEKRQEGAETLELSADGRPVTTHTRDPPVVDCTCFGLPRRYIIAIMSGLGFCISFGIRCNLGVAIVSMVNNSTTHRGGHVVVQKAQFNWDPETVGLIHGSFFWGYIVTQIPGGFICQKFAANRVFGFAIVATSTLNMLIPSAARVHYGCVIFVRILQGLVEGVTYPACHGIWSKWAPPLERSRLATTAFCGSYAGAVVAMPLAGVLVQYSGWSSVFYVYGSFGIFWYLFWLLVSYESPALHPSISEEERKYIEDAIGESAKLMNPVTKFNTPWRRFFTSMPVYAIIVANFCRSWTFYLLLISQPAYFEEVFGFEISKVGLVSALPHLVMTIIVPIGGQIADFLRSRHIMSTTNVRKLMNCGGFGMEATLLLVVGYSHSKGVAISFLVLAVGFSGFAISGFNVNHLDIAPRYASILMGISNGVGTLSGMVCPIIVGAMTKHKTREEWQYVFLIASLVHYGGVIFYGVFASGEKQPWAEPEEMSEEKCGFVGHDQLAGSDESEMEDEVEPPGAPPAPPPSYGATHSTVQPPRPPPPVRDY
Kind of experiment: inhibition of Pi uptake in COS7-VGLUT1 cells at […]. Type of experiment: cell-based.

Experiment [2] addresses T1, VGLUT1. In words: inhibition of Na+-dependent Pi uptake in COS7-VGLUT1 cells. Type of experiment: cell-based.

As for `O=C1OC2(c3cc(I)c(O)c(I)c3Oc3c2cc(I)c(O)c3I)c2c(Cl)c(Cl)c(Cl)c(Cl)c21` [RB, Rose bengal], the “inhibition of Pi uptake in COS7-VGLUT1 cells at 10 uM” value in experiment [1] was “The absence of additive effect of NB9 and RB emphasizes the specificity of both inhibitors toward VGLUT1”.

For the compound `N[C@@H](CCC(=O)O)C(=O)O` [glutamate], in experiment [2], the Ki is 1.37 mM.
